Reference: a melting point compilation (Tetko et al.; mined from patent text by program, amines drawn as free bases though some values may be those of a salt)

First: OCc1cccc(Nc2ncc3c(n2)-c2ccccc2[C@H](c2ccccc2F)C3)c1
Second: O=C(Nc1cccc(C(=O)Nc2nnn[nH]2)c1)NC1N=C(c2ccccc2F)c2ccccc2N(CC(=O)N2CC3CCC(CC3)C2)C1=O (racemic)
The melting point of the first is lower: 158 to 159 °C for the first, 193 to 196 °C for the second.

Compared with `O=CC1=C(Cl)Nc2cc(Cl)c(F)cc2C1`, `NS(=O)(=O)c1cc2[nH]c(C(Cl)Cl)nc2cc1Cl` is lower in melting point: 260 °C for the first, 225 to 227 °C for the second.

First: CSc1nn2c(N3CCOCC3)cc(C)nc2c1S(=O)(=O)c1ccccc1
Second: Cc1nc(-c2ccccc2)n(-c2ccc(S(N)(=O)=O)cn2)n1
The melting point of the first is higher: 206 to 208 °C for the first, 203 to 204 °C for the second.

First: CC(O)C1C(=O)N2C1=CC(=O)C2C(=O)OCc1ccc([N+](=O)[O-])cc1 (centres undefined)
Second: N#CC(Cc1ccccn1)(C(N)=O)c1ccc([N+](=O)[O-])cc1 (centres undefined)
The melting point of the first is higher: 92 to 98 °C for the first, 79 to 81 °C for the second.

First: Clc1ccc2c(c1)-c1[nH]ncc1CO2
Second: O=C1c2ccccc2COc2cc(Br)ccc21
The melting point of the first is higher: 175 to 176 °C for the first, 110 to 112 °C for the second.

Compared with `COc1cc2nc(N)nc(-c3cccc(Br)c3)c2cc1OC`, `CCOC(=O)c1c(/C=C/c2nccn2C)nc2cc(OC)c(OC)cc2c1-c1ccc(OC)c(OC)c1` is lower in melting point: 246 to 249 °C for the first, 206 to 208 °C for the second.

First: CC12CCC3(CC1CCC1C2CCC2(C)C1CC(O)C2NC=O)OCCO3 (centres undefined)
Second: Cc1ccc(C2CCN(C(=O)CCC(=O)c3ccc4c(c3)CCN(C)CC4)CC2)cc1
The melting point of the first is higher: 277 to 280 °C for the first, 111 to 112 °C for the second.

First: CN(c1cccc2cc(-c3nccs3)[nH]c12)S(=O)(=O)c1cccnc1Cl
Second: Cn1nc(-c2ccc(Cl)cc2)c2cc3ccccc3cc21
The melting point of the first is higher: 203 °C for the first, 157 to 159 °C for the second.

Compared with `O=C(Nc1ccc(-n2nc(C(F)(F)F)cc2C(F)(F)F)cc1)c1ccccc1Oc1ccccc1`, `CS(=O)(=O)c1ccc(-c2cnn(Cc3ccccc3C(F)(F)F)c(=O)c2-c2ccc(F)cc2)cc1` is lower in melting point: 108 to 109 °C for the first, 87 to 90 °C for the second.

Compared with `CNC(=C[N+](=O)[O-])NCCSCc1csc(CN2CCCCC2)c1`, `Oc1cccc2c1CCCC2CN1CCCCC1` (centres undefined) is higher in melting point: 101 to 103 °C for the first, 129 to 131 °C for the second.

First: CC1CCCC(=Cc2ccc(Cl)cc2)C1=O (centres undefined)
Second: N#Cc1c[nH]c(C(F)(F)F)c1-c1ccc(Cl)cc1
The melting point of the first is lower: 59 °C for the first, 114 to 115 °C for the second.

Compared with `Cc1ccc(-c2nc(C(F)(F)F)nc(NN)c2-c2ccccc2)cc1`, `COC(=O)c1c(-c2ccccc2)nc2c(c1N)c1c(n2Cc2ccc(OC)cc2)CCCC1` is higher in melting point: 188 to 191 °C for the first, 192 to 194 °C for the second.

First: CC1Oc2c(C#N)cc(F)cc2C=C1n1nc(C(F)(F)F)n(C)c1=S (centres undefined)
Second: CC(C)Oc1cc(-n2c(=O)c(F)c(C(F)(F)C(F)(F)F)n(C)c2=O)c(F)cc1Cl
The melting point of the first is higher: 144 °C for the first, 107 to 109 °C for the second.

Compared with `CCNC(=O)Nc1nc2cc(-c3cccnc3)cc(-c3cccc(OC)n3)c2s1`, `COc1ccccc1-c1ccc(OCC(=O)Nc2cscc2C(=O)O)nc1` is lower in melting point: 300 °C for the first, 194 to 197 °C for the second.

Compared with `Clc1nnc(Cc2ccncc2)c2ccccc12`, `O=S(=O)(NCc1ccncc1)c1ccc(I)cc1` is higher in melting point: 116 to 119 °C for the first, 174 to 176 °C for the second.

First: CC1CCc2cc(C3=NNC(=O)C4CC34)ccc2NC1=O (centres undefined)
Second: O=C(CCC(=O)N1CCC(N2Cc3ccccc3NC2=O)CC1)c1ccc(Cl)c(Cl)c1
The melting point of the first is higher: 305 to 307 °C for the first, 224 to 226 °C for the second.

Compared with `CCOC(=O)c1cnc(Nc2ccc(OCC)cc2)[nH]c1=O`, `CCOC(=O)c1ccc(Cn2cnc3cnccc32)cc1` is lower in melting point: 263 to 265 °C for the first, 156 to 157 °C for the second.

First: Cc1ccc(OCCCCCNc2cccc3c2C(=O)c2cccc4[nH]nc-3c24)cc1
Second: Cc1ccc(C(=O)N(c2ccccc2)c2ccc(OCCN(C)C)cc2)cc1
The melting point of the first is higher: 122 to 125 °C for the first, 74.5 to 77.5 °C for the second.

First: CC(=O)SCSCc1cn(C(c2ccccc2)(c2ccccc2)c2ccccc2)nn1
Second: CC(C)(SCc1ccccc1)[C@@H]1C[C@H](CSCc2ccccc2)C(=O)N1CC(=O)O (relative stereo)
The melting point of the first is lower: 106 °C for the first, 117 to 118 °C for the second.

Compared with `COC(=O)Cc1cccc(CC(=O)OC)c1[N+](=O)[O-]`, `CC(=O)ONc1nc(CC(=O)Nc2cccc(C(F)(F)F)c2)cs1` is lower in melting point: 144 to 145 °C for the first, 137 to 140 °C for the second.

Compared with `COc1ccc(C2Sc3c(ccc4ccccc34)N(CCN(C)C)C(=O)C2OC(=O)c2cc(OC)c(OC)c(OC)c2)cc1` (centres undefined), `COc1ccc(C(=O)Nc2ccc(COc3ccc4c(c3)CCC(CN(C)C)C4)cc2)cc1` (centres undefined) is lower in melting point: 189 to 190 °C for the first, 155 to 159 °C for the second.

First: CCOC(=O)C1CCN(c2nnc(NCc3ccc(OC)c(Cl)c3)c3cc([N+](=O)[O-])ccc23)CC1
Second: COc1ccc(CCNC(=O)C(=O)NO)cc1OC1CCCC1
The melting point of the first is higher: 208 to 210 °C for the first, 136 to 137 °C for the second.

First: COc1cccnc1Br
Second: COc1cc2c(C)c(-c3ccccc3)sc2c(Cl)c1Cl
The melting point of the first is lower: 34 °C for the first, 138 °C for the second.

First: OC/C=C/c1ccc(OCc2coc(-c3ccccc3)n2)c(F)c1
Second: Cc1oc(-c2ccccc2)nc1COc1cccc(C=CC=C2OC(=O)NC2=O)c1
The melting point of the first is lower: 134 to 135 °C for the first, 229 to 230 °C for the second.

First: COC(=O)CCc1ccc(C(=C2CC(C)(C)CC(C)(C)C2)c2ccc(O)cc2)cc1
Second: CCCCCCC(=O)Oc1ccc(-c2ccc(C#N)cc2)cc1
The melting point of the first is higher: 129 to 130 °C for the first, 57.7 to 57.9 °C for the second.

Going from `CCN(CC)CCC1CCCCN1C(=O)N1c2ccccc2C(=O)Nc2cccnc21` (centres undefined) to `O=C(Nc1cccc2[nH]ccc12)c1ccccc1OCCCNC1CCCCC1`, the melting point rises from 100 °C to 148 °C.

First: COC(=O)c1c(F)cc(OCCNC(=O)OCc2ccccc2)cc1F
Second: CCOC(=O)c1cc(=O)c2c(OCC(O)COc3cccc(C(F)(F)F)c3)cccc2o1 (centres undefined)
The melting point of the first is higher: 95 to 97 °C for the first, 70 to 75 °C for the second.

First: CCOc1nn(C(=S)Oc2ccccc2)c(=O)n1C
Second: Cc1nnc(CNC(=O)CN(C)C)n1-c1ccc(Cl)cc1C(=O)c1ccccc1
The melting point of the first is lower: 123 °C for the first, 176 to 178 °C for the second.

First: CSc1nn(C(C)(C)C)c(=O)c(Cl)c1C1CCC(C(C)(C)C)CC1 (centres undefined)
Second: CC(=O)N1CCC(c2nc(N)nc3ccccc23)CC1
The melting point of the first is lower: 96 °C for the first, 184 to 186 °C for the second.

First: COC(=O)c1ccc2nc3scc(C)c3c(=O)n2c1
Second: CC(=O)Nc1ncc2cc(-c3c(Cl)cccc3Cl)c(=O)n(C)c2n1
The melting point of the first is lower: 208 to 209 °C for the first, 258 to 260 °C for the second.

First: CN(C)c1ccc(NC(=O)NC2CCC2)c(C(=O)NCC2CCN(C(c3ccccc3)c3ccccc3)CC2)c1
Second: Cc1ccccc1NC(=O)c1ccc(C(=O)N2Cc3ccccc3Cc3ccccc32)cc1
The melting point of the first is lower: 210 to 212 °C for the first, 214 to 216 °C for the second.

First: CN1CCNC1=C(Cl)[N+](=O)[O-]
Second: CN1CCN(C(=O)c2cccn2Cc2ccccc2N)CC1
The melting point of the first is higher: 145 to 146 °C for the first, 139 to 141 °C for the second.

First: c1cnc2c(c1)ncn2CCCCc1nnnn1C1CCCCC1
Second: CC(C)(C)C(=O)Oc1ccc(-c2nnn(CCCCC(=O)O)n2)cc1
The melting point of the first is lower: 94 to 95 °C for the first, 129 to 131 °C for the second.

First: CC=CCSc1cc(C(=O)O)cc(N)c1-c1ccccc1
Second: O=C(Nc1ccccc1)c1cc(Br)ccc1O
The melting point of the first is lower: 102 to 104 °C for the first, 229 to 230 °C for the second.

First: COc1nc2ccccc2nc1NC(=O)N1CCN(c2ccccc2)CC1
Second: Cc1ccc(-c2ccnc3c(C(=O)c4cccs4)cnn23)cc1NC(=O)c1ccccc1
The melting point of the first is lower: 147 to 149 °C for the first, 216 to 218 °C for the second.

First: O=c1c2cccc(O)c2oc2cc(O)cc(O)c12
Second: Cc1ccccc1-c1c(C(=O)O)c(=O)oc2cc3c(cc12)CCCC3
The melting point of the first is lower: 211 to 213 °C for the first, 216 to 217 °C for the second.

Compared with `Cc1ccccc1-c1cc(N2CCN(C)CC2)ncc1N(C)C(=O)C(C)(C)c1cc(C(F)(F)F)cc(C(F)(F)F)c1`, `Cc1c(OCC(F)(F)F)ccnc1CSc1nc2cc(N3CCN(C)CC3)c(F)cc2[nH]1` is lower in melting point: 155 to 157 °C for the first, 109 to 110 °C for the second.

Compared with `COc1ccc2c(c1)OCC(NNc1ncnc3c1ncn3C1OC(CO)C(O)C1O)C2` (centres undefined), `Cc1ccccc1-n1c(Cn2cnc3c(N)ncnc32)nc2cccc(C)c2c1=O` is higher in melting point: 205 to 207 °C for the first, 282 to 283 °C for the second.

Compared with `O=C(NO)[C@H](CNS(=O)(=O)c1ccc(OCc2cc(Cl)cc(Cl)c2)cc1)N1CCCCC1`, `Cc1ccccc1C(=O)Nc1ccc(C(=O)N2CCCC(O)c3cc(Cl)ccc32)c(C)c1` (centres undefined) is higher in melting point: 130 °C for the first, 224 to 226 °C for the second.

First: CC(C)Cn1cnc2c(N)nc3ccc(CCc4ccccc4)cc3c21
Second: Cc1nc2c(N)nc3ccccc3c2n1CC(C)(C)CC1(C)OCCO1
The melting point of the first is lower: 175 to 178 °C for the first, 209 to 211 °C for the second.

`O=C(NCCN1CCOCC1)c1ccc2nonc2c1` and `NC[C@H]1CN(c2ccc(N3CCOCC3=O)cc2)C(=O)O1` cannot be ordered by melting point: 145 to 148 °C for the first, 145 to 147 °C for the second.

Compared with `Nc1c(-c2ccc(Cl)cc2)nc2ccc(F)cc2c1C(=O)O`, `Cn1nnc2ccc(CNNc3ccc(Cl)cc3)cc21` is lower in melting point: 241 to 243 °C for the first, 96 °C for the second.

First: CO[C@H]1[C@H](N2CCCC2)c2cc(C#N)ccc2OC1(C)C (relative stereo)
Second: CC1(C)CCC(C)(C)c2cc(-c3nc4ccc(C(=O)O)cc4s3)ccc21
The melting point of the first is lower: 108 to 109 °C for the first, 292 to 293 °C for the second.

First: O=C(O)C1=CC(CF)(CF)Oc2ccc(C(F)(F)C(F)(F)F)cc21
Second: Cc1c(C)c2c(c(C)c1NC(=O)CC(C)(C)C)OC(C)(C)C2Cc1ccccc1 (centres undefined)
The melting point of the first is lower: 173 to 174 °C for the first, 209 to 210 °C for the second.

First: O=C1OC(=O)c2nc3ccccc3cc21
Second: COc1nc(-c2ccc(OC(C)C)cc2)sc1C(=O)O
The melting point of the first is higher: 225 to 228 °C for the first, 109 to 110 °C for the second.

First: CCOC(=O)NCc1ccc2[nH]cc(CC#N)c2c1
Second: CC(C)=CCOc1ccc(OCC=C(C)C)c(C(=O)NCCc2ccncc2)c1
The melting point of the first is higher: 104 to 106 °C for the first, 92.7 to 93.5 °C for the second.

First: CCc1noc(-c2cn(-c3ncc(Cl)cc3Cl)cn2)n1
Second: Cc1cc(-c2nnc(C(C)(C)C)o2)ccc1[N+](=O)[O-]
The melting point of the first is higher: 132 to 133 °C for the first, 123 to 125 °C for the second.

First: CC(C)c1cc(Br)c(C(C)C)cc1S
Second: CC(C)c1nc(N(C(C)C)C(C)C)c([N+](=O)[O-])c(N(C(C)C)C(C)C)n1
The melting point of the first is higher: 72 to 75 °C for the first, 45 °C for the second.

First: CCCCCCCCCCCCCCCCCCc1c(C)[nH]c(C(=O)OCC)c1C
Second: CCOC(=O)c1cn(-c2nc(N)c(F)cc2F)c2c(F)c(F)c(F)c(N)c2c1=O
The melting point of the first is lower: 76 to 78 °C for the first, 225 to 230 °C for the second.

For `C#CCN(C(=O)C(Cl)Cl)C(C)C`, the melting point was 58 to 59 °C.
